Consider one molecule from patent EP4574175A1, “PRODRUG FOR ANTI-AGING RELATED DISEASES AND USE METHOD THEREFOR” (BEIJING SUNCELL BIO-MEDICAL CO., LTD., priority 2022, dated 2024).

The subject of data set [1] is platelets. Description: In vivo platelet toxicity test. Details: species or system C57 mice. The method, then: (§1) All drugs were mixed in 85% physiological saline, 5% DMSO (Sigma, D8418) and 10% Solutol HS 15 (Sigma, 42966), and administered to mice by intraperitoneal (i.p.) injection. To treat the bleomycin-injured young mice, A13 (2 mg/kg), A13bGa1 (5 mg/kg), or an empty vehicle control was administered three consecutive days per week for four weeks. A1331852 (abbreviated as A13) was purchased from MCE.
A single administration of A13 or A13bG was performed. Female 5-6 week old C57 mice were treated with a single intraperitoneal injection. A13 and A13bG were administered in three different dose groups of 2, 5, and 20 mg/kg. Approximately 50 µl of blood was collected from each mouse at different time points into the EDTA tubes (RAM Scientific) by means of inner canthal blood extraction, and analyzed using a haematology analyzer for a blood routine examination and a platelet counting. Multiple administrations of A13 or A13bG were performed. Female 5-6 week old C57 mice were treated with multiple intraperitoneal injections. A13 and A13bG were administered in three different dose groups of 2, 5 and 20 mg/kg, three consecutive days per week, followed by a 4-day withdrawal for 3 weeks. The time points of administration were in the afternoon of days 0, 1, 2, 7, 8, 9, 14, 15, and 16, and the time points of blood collection and testing were in the morning of days 1, 3, 5, 8, 10, 12, 15, 17, and 19, respectively.
For a blood routine examination, 50 µl of fresh blood was collected from each mouse and immediately mixed with EDTA. Blood samples were analyzed by Celltac Alpha MEK-6400 series haematology analyzer (Nihon Kohden, MEK-6400). Data were expressed as the number of different blood cells or platelets per µl of blood. For the serum biochemical analysis, the blood samples were collected, coagulated for 2 hours at room temperature or overnight at 4°C, and then centrifuged (1000 g, 10 minutes) to obtain serum. A 200 µl of serum was aliquoted and analyzed for alanine aminotransferase (ALT), aspartate aminotransferase (AST), uric acid (UA), and creatinine (CREA) by a chemistry analyzer (Mindray, BS-350E).

Data set [2] relates to mouse model of Bleomycin-induced pulmonary fibrosis. Description: Bleomycin-induced pulmonary fibrosis mouse model. In kind it is in vivo, C57 mice. As to conditions: A13 2 mg/kg, A13bGa1 5 mg/kg i.p. The procedure:
as §1
Bleomycin was purchased from Selleck. […]. Drug treatment was initiated four days after modelling, and the drug was administered three consecutive days per week for four consecutive weeks, after which the mice were executed for material collection.
All animals (including those found dead, dying, and euthanised) were autopsied, and the lung tissues were preserved. The lungs were separated, the fat and other tissues were removed, the surface fluid was absorbed using a filter paper, and the whole lungs were weighed (those found dead, dying, and euthanised) for calculation of the lung weight index. The right lung and bronchiole were fixed in 10% neutral buffered formalin solution, embedded in paraffin, sectioned, prepared into slices, and stained with HE for a histopathological and morphological observation of the lung. The degree of the lesions such as the inflammatory cell infiltration in the lung tissue were graded according to a 4-grade classification (slight, mild, moderate, severe) using a standard terminology for diagnosis and classification. The left lung tissue was clipped and stored temporarily below -60°C. Lung weight index(%) = lung weight/body weight × 100%. [formula]
Masson trichrome stain kit (Solarbio, G1340) was used to detect fibrosis in the lung tissue. The formalin-fixed, and paraffin-embedded lung sections were dewaxed with xylene, and then rehydrated with 100% alcohol, 95% alcohol and distilled water. The sections were then stained according to the manufacturer's instructions. Afterwards, the sections were rapidly dehydrated with 95% alcohol and 100% alcohol, cleaned with xylene and covered with the coverslips. […]

Data set [3] can be described thus: Hepatic microsomal metabolic stability.
Data set [4] can be described thus: Hepatic microsomal metabolic stability. This is another data set of the same source.
For data set [5], the system named is normal cells (HEF, HELF, BJ, A549, HUVEC, MRC5). Description: Cell viability test (CCK-8) on normal uninduced cells, A13 vs A13bGa1. As to conditions: compared with parent compound A13.
Procedure: (§2) Briefly, the human embryonic skin tissues and the fetal lung tissues obtained from the aborted tissues with the patient's informed consent were minced with the forcep and incubated in 1 mg/ml collagenase IV at 37°C for 1-2 hours. After the enzyme treatment, the cells were collected by centrifugation and resuspended in HEF medium (Dulbecco's modified Eagle medium (DMEM, Gibco) containing 10% fetal bovine serum (FBS, Ausbian), 1% GlutaMAX (Gibco), 1% non-essential amino acids (NEAA, Gibco) and 1% penicillin/streptomycin (Gibco). Gibco). Cells were plated on the 10 cm tissue culture dishes and grown in 10% FBS DMEM. […] They were passaged and cryopreserved according to Lonza's method. A549 cells, BJ cells and MRC5 cells were purchased from ATCC and cultured in DMEM medium containing 10% fetal bovine serum (FBS, Ausbian), and 1% penicillin/streptomycin (Gibco).
(§3) Cell Counting Kit-8 (CCK-8) assay was used to assess the cell viability. The senescent and non-senescent cells or chondrocytes were seeded into the 96-well plates and cultured overnight. The cells were then treated with control (0.05% DMSO) or different concentrations of the drug to be tested. […] Absorbance was measured at the wavelength of 450 nm.
Data set [6] has as its system senescent HEF, HELF, BJ, A549, HUVEC and MRC5 cells. The experiment in a line: Cell viability test (CCK-8) on induced senescent cell models, A13 vs A13bGa1. Conditions: Figures 3B-3G.
Procedure: as §2, §3

`Cc1c(-c2ccc(N3CCc4cccc(C(=O)Nc5nc6ccccc6s5)c4C3)nc2C(=O)OCc2ccc(O[C@@H]3O[C@H](CO)[C@H](O)[C@H](O)[C@H]3O)c([N+](=O)[O-])c2)cnn1CC12CC3CC(CC(C3)C1)C2` [A13bGa1]: in data set [1] (multiple rounds i.p., 3 consecutive days per week for 3 weeks, 2, 5 and 20 mg/kg), the “toxic effects on the platelets” value is on record as “significantly reduced”. Moreover, the platelet-destroying effect entry in data set [1] (single intraperitoneal administration, 20 mg/kg) is “strong platelet-destroying effect only at the higher dose of 20 mg/kg”. For the same molecule, the “toxicity to the platelets” value in data set [1] (single intraperitoneal administration, 2, 5 and 20 mg/kg) is “significantly less toxic to the platelets than the parent compound A13”. The “pathological manifestations of the pulmonary fibrosis (Masson staining)” value in data set [2] was “improved”. Also, in data set [2] (3 consecutive days per week for 4 weeks), the lung index result was “recovered to the normal level”. For the same molecule, in data set [2] (HE staining), the “inflammation and consolidation of the mouse lungs (pathological sections)” value is on record as “significant improvement”. Moreover, the “The hepatic extraction ratio (E)” value in data set [3] (Canine) came to 0.70; in data set [4] (Rat), 0.34. For the same molecule, the CLint scaled at 1 µM in data set [3] (dog, microsomes) was 21.7 mL/min/kg; in data set [4] (rat, microsomes), 18.7 mL/min/kg. Besides, the microsomal CLint at 1 µM in data set [3] (dog, microsomes) is 29.3 µL/min/mg; in data set [4] (rat, microsomes) it was 15.8 µL/min/mg. Besides, the “toxicity to the normal cells” value in data set [5] was “greatly reduced”. Further, in data set [6], the “overall killing activity on the senescent cells compared with parent compound” value was “somewhat reduced compared with that of the parent compound A13”. For the same molecule, the “killing of the senescent cells” value in data set [6] (skin-derived fibroblasts, lung-derived cells, vascular endothelial-derived cells) was “highly efficient and selective in killing the senescent cells”.

For orientation: CLint scaled means the rate of metabolic loss divided by the concentration. High values mean rapid turnover, low ones slow turnover. One may read the microsomal CLint as the capacity of the preparation to metabolise the compound, expressed as a volume cleared per time. A low value points to slow turnover.
